# Source: patent US20230218255A1, “IMAGING OF MYELOMA BONE LESIONS” (Blue Earth Diagnostics Limited, priority 2022, published 2023)
# System: myeloma bone lesion
# Test: [^18F]-FACBC PET and fused PET/CT imaging of the lumbar vertebrae
# Assay type: in vivo
# Conditions: coronal PET and PET/CT of lumbar vertebrae; PET acquisition started 5 minutes after administration of 319 MBq
# Method: In an exemplary method, lesion [^18F]-FACBC uptake is visually compared to [^18F]-FACBC activity in the bone marrow. [^18F]-FACBC uptake higher than the bone marrow is considered as suspicious for myeloma. [^18F]-FACBC uptake similar or less than the bone marrow is considered as non-suspicious for myeloma.
# FIG. 1: Coronal [^18F]-FACBC PET (left) and fused PET/CT (right) images of the lumbar vertebrae. […] The PET scan acquisition was started 5 minutes after administration of 319 MBq of [^18F]-FACBC.
# In an aspect of the present disclosure, there is provided a method of diagnosing myeloma bone lesions in a subject comprising the steps of: • (a) administering a detectable amount of [^18F]-FACBC to the subject; • (b) acquiring one or more positron emission tomography (PET) scan images of the subject for a region of the subject that includes a potential myeloma bone lesion; and • (c) comparing [^18F]-FACBC uptake in the potential lesion against [^18F]-FACBC uptake in the bone marrow of the region of the subject; wherein lesion [^18F]-FACBC uptake which is higher than bone marrow [^18F]-FACBC uptake is indicative of the presence of myeloma bone lesions.
smiles,measurement,value
"N[C@]1(C(=O)O)C[C@@H](F)C1 [[^18F]-FACBC, anti-1-amino-3-^18F-fluorocyclobutane-1-carboxylic acid]",[^18F]-FACBC uptake in area diagnosed as a lesion compared with surrounding bone marrow,higher than the surrounding bone marrow
